Assays:
[1] = biological target: T1, Nicotinic channels N neuronal α4β2 (Homo sapiens, UniProt P17787+P43681); experiment: Off-target screening (Eurofins Cerep), N neuronal α4β2; assay type: binding
T1 construct: Eurofins Cerep SA (contract screen)

[2] = biological target: T2, lymphocyte-specific protein tyrosine kinase (LCK) (Homo sapiens, UniProt P06239); experiment: Off-target screening (Eurofins Cerep), Lck kinase; assay type: biochemical
T2 construct: Eurofins Cerep SA (contract screen)

HT-29 cells = experiment: In vitro competition with unlabeled cRGD, HT-29; assay type: cell-based, human; details: 500 nM cRGD-ZW800-1 + 500 nM unlabeled cRGD (1:1), 37°C, 2 h, vs cells without unlabeled cRGD, triplicate
Experimental: (§1) For in vitro competition, U-87 MG (αvβ3 and αvβ5 positive, αvβ6 negative) and HT-29 (αvβ3 negative, αvβ5 and αvβ6 positive) cells were plated in a 96-well plate at a density of ∼40,000 and ∼60,000 cells per well, respectively. Subsequently, 500 nM of cRGD-ZW800-1 was simultaneously added to the cells and incubated at 37°C for 2 h. At the same time, half of the cells were also incubated with 500 nM unlabeled (“cold”) cRGD.
(§2) Both the cells in the binding and the competition experiment were then washed twice and imaged with the Odyssey NIR scanner (LI-COR Biosciences, Lincoln, Nebraska: focus offset 3 mm; 800-nm channel). Next, cells were permeabilized with a 40/60 mixture of acetone and methanol followed by a washing step and a 5 min incubation with ToPro3 (1/2000, Invitrogen), a far red fluorescent dye (642/661nm). The wells were then washed and again imaged with the Odyssey scanner (focus offset 3 mm; 700-nm channel) to quantify the number of cells in each well. The experiments were performed in triplicate.

Serotonin 5-HT1B = biological target: T3, Serotonin 5-HT1B (Rattus norvegicus, UniProt P28564); experiment: Off-target screening (Eurofins Cerep), 5-HT1B; assay type: binding
T3 construct: Eurofins Cerep SA (contract screening)
T3 sequence (P28564 whole entry): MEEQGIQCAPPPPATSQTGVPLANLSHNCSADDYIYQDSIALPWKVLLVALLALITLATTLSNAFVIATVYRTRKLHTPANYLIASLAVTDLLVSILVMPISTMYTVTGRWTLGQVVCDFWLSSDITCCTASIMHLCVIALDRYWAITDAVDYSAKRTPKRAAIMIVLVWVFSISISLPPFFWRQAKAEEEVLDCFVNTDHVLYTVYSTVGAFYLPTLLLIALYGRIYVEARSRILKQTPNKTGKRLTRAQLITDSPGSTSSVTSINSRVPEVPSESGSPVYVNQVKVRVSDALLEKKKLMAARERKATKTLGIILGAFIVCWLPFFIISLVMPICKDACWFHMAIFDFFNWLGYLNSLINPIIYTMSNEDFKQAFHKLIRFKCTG

U-87 MG cells = experiment: In vitro competition with unlabeled cRGD, U-87 MG; assay type: cell-based, human; details: 500 nM cRGD-ZW800-1 + 500 nM unlabeled cRGD (1:1), 37°C, 2 h, vs cells without unlabeled cRGD, triplicate, p = 0.02
Experimental: as §1, §2

Potassium Channel hERG [3] = biological target: T4, Potassium Channel hERG (Homo sapiens, UniProt Q12809)
T4 sequence (Q12809 whole entry): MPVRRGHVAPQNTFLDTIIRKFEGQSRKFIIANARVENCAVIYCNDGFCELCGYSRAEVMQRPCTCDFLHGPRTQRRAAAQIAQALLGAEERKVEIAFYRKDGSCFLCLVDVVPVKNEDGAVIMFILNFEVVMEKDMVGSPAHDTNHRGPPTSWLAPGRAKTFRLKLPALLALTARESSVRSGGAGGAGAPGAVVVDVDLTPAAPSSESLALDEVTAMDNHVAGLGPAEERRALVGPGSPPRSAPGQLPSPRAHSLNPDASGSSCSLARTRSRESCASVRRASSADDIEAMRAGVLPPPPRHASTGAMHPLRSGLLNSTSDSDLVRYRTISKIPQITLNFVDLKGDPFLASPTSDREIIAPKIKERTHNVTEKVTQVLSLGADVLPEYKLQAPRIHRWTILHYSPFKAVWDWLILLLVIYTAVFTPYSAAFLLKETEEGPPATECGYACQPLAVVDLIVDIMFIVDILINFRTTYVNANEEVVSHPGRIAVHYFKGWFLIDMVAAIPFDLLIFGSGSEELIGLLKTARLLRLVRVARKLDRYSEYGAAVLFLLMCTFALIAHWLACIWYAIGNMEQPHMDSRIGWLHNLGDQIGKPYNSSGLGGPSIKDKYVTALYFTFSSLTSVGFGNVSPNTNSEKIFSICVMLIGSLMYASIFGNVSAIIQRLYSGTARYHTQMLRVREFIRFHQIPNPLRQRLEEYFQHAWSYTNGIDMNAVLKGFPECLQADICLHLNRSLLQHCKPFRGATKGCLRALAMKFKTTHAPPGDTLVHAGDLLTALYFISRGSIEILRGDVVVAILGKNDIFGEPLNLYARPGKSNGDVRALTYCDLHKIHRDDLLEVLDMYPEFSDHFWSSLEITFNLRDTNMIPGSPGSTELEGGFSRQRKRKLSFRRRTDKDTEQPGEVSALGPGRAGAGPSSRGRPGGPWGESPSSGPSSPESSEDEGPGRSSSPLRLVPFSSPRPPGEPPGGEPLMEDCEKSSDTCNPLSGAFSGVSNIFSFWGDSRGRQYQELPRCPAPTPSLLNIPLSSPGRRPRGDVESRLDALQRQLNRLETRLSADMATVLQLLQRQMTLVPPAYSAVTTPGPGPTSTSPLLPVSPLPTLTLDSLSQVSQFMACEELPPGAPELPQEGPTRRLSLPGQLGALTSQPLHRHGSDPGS

Potassium Channel hERG [4] = biological target: T4, Potassium Channel hERG; remark: listed apart in the source
Opioid δ (DOP) = biological target: T5, Opioid δ (DOP) (Homo sapiens, UniProt P41143); experiment: Off-target screening (Eurofins Cerep), δ (DOP); assay type: binding
T5 construct: Eurofins Cerep SA (contract screening)

Adrenergic β2 = biological target: T6, Adrenergic β2 (Homo sapiens, UniProt P07550); experiment: Off-target screening (Eurofins Cerep), β2; assay type: binding
T6 construct: Eurofins Cerep SA (contract screening)
T6 sequence (P07550 whole entry): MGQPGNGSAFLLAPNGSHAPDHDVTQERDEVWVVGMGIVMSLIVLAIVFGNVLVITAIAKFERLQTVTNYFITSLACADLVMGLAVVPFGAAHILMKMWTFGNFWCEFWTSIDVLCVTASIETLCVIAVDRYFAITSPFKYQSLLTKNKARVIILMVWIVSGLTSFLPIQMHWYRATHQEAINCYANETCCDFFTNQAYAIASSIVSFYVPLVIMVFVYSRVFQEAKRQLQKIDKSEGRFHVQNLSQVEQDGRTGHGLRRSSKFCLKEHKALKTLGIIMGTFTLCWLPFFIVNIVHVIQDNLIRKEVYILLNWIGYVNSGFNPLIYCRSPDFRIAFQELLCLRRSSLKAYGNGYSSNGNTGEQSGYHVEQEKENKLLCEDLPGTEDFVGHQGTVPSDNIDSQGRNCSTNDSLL

Histamine H1 = biological target: T7, Histamine H1 (Homo sapiens, UniProt P35367); experiment: biochemical; assay type: binding
T7 construct: Eurofins Cerep SA (contract screening)
T7 sequence (P35367 whole entry): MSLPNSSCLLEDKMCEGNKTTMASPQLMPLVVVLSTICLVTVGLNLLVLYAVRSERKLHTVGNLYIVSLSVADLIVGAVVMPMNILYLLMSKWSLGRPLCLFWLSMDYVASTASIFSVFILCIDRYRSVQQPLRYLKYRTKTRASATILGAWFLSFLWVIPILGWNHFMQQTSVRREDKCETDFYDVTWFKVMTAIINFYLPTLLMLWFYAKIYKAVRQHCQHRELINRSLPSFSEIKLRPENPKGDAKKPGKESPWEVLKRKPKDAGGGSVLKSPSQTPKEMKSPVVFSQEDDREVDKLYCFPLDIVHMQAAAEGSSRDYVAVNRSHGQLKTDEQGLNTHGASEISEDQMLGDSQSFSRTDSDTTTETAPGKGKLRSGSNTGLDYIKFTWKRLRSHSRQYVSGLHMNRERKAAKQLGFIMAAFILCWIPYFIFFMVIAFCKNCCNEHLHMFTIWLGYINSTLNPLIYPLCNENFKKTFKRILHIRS

Opioid κ (KOP) = Opioid κ (KOP) (Rattus norvegicus, UniProt P34975); experiment: biochemical; assay type: binding
PDE4D2 = biological target: T8, PDE4D2 (Homo sapiens, UniProt Q08499); experiment: Off-target screening (Eurofins Cerep), PDE4D2; assay type: biochemical
T8 construct: Eurofins Cerep SA (contract screen)
T8 sequence (Q08499 303-809): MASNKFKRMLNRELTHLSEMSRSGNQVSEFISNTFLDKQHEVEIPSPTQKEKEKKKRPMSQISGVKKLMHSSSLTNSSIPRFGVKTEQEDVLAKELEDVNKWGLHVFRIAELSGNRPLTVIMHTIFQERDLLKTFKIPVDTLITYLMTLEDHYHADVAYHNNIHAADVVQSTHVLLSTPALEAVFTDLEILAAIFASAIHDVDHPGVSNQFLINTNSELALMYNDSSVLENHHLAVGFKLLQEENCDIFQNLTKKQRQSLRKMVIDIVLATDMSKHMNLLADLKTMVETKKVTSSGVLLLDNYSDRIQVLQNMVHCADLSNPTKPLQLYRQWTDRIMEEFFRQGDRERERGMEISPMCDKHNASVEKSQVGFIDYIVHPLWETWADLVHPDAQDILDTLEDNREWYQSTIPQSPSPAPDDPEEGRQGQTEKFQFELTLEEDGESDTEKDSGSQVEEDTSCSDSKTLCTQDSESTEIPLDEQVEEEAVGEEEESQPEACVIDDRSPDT

[5] = Pharmacokinetics in mice without tumors; assay type: in vivo
Experimental: cRGD-ZW800-1 was diluted in 0.05 mM HEPES buffered mouse serum to the concentrations 5.00, 4.50, 4.00, 3.50, 3.00, 2.50, 2.00, 1.50, 1.00, 0.50, 0.25, 0.13, 0.06, 0.03, and 0.02 μM. A calibration curve was created by measuring each concentration in 60 μL capillary tubes (Hirschmann® Laborgeräte GmbH and co. KG, Eberstadt, Germany) using the FLARE® with exposure times of: 1, 2, 5, 10, 25, 50, 100, 200, 500, 1000, and 2000 msec. Data were plotted in fluorescence intensity over concentration (μM) (Supplementary Figure 2, Supplementary Data). For each exposure time, the formula of the linear regression line was calculated. Subsequently, 5 mice without tumors were injected with 10 nmol cRGD-ZW800-1 via the lateral tail vein. The contralateral lateral tail vein was used to draw blood on the time points -5, 1, 6, 10, 20, 30, 40, 50, 60, 90, 120, and 240 min. post injection. Blood samples were absorbed using 60 μL capillary tubes and immediately measured using the FLARE® with the same exposure times. Saturated images and those under the detection limit were excluded from analysis. Each measurement was calculated back to its concentration using the matching formulas (Supplementary Figure 3, Supplementary Data). The mean of each formula output was used as the concentration. Data was analyzed using NONMEM® software (Icon Development Solutions, Ellicott City, MD, U.S.A.). Data were plotted in logarithmic and linear concentration (μM) over time (min).

Adrenergic β1 = biological target: T9, Adrenergic β1 (Homo sapiens, UniProt P08588); experiment: Off-target screening (Eurofins Cerep), β1; assay type: binding
T9 construct: Eurofins Cerep SA (contract screening)
T9 sequence (P08588 whole entry): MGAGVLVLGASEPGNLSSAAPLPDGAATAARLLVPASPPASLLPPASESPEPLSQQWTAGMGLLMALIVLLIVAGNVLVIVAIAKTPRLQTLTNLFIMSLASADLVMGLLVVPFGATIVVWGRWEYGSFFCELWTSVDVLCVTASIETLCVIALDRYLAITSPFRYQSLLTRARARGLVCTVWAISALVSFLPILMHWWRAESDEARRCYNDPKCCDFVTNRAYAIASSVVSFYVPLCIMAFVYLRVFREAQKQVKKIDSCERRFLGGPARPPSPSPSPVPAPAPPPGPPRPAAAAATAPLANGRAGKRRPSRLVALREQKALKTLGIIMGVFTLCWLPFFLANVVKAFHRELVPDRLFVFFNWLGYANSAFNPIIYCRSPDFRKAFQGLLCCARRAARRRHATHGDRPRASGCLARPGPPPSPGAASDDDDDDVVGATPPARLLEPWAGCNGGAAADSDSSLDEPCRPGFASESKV

[6] = 10 μM cRGD-ZW800-1, format H, Ag, performed twice, read-out: % Inhibition of Control Specific Binding
[7] = 10 μM, mean of 2, read-out: % of Control Specific Binding Mean
[8] = read-out: % Inhibition of Control Specific Binding
[9] = read-out: % of Control Specific Binding Mean
[10] = mice, 10 nmol i.v., mean ± SD, n = 5

T1 sequence (P43681 29-627 limits assumed): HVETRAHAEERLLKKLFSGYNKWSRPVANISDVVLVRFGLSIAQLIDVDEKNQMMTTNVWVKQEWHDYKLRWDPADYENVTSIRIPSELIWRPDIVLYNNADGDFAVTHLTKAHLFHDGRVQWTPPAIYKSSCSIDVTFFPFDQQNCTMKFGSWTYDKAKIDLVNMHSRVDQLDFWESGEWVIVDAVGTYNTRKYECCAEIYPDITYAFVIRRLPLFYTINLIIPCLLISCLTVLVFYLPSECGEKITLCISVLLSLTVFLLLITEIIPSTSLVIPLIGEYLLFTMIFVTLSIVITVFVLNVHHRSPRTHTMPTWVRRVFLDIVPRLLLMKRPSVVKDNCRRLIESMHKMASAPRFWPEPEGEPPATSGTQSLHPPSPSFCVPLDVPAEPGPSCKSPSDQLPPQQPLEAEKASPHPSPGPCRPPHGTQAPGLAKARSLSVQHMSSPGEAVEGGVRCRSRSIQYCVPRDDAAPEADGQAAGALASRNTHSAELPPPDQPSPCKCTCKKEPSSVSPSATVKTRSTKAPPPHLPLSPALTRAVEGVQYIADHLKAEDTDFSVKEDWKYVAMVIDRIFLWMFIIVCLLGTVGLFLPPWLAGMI
T1 sequence (P17787 26-502): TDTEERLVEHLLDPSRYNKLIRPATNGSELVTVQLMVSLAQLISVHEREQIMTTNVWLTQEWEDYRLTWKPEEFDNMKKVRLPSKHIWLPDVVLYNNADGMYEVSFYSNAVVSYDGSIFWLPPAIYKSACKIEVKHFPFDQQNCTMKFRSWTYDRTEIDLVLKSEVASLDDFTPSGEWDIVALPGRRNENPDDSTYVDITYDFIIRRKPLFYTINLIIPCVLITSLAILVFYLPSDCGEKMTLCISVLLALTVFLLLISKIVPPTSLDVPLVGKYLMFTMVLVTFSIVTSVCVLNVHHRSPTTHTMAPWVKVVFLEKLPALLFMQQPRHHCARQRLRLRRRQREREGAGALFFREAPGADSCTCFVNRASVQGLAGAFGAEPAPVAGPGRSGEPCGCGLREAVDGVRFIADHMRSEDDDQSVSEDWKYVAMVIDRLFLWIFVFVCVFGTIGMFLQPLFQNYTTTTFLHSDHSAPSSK
T2 sequence (P06239 whole entry): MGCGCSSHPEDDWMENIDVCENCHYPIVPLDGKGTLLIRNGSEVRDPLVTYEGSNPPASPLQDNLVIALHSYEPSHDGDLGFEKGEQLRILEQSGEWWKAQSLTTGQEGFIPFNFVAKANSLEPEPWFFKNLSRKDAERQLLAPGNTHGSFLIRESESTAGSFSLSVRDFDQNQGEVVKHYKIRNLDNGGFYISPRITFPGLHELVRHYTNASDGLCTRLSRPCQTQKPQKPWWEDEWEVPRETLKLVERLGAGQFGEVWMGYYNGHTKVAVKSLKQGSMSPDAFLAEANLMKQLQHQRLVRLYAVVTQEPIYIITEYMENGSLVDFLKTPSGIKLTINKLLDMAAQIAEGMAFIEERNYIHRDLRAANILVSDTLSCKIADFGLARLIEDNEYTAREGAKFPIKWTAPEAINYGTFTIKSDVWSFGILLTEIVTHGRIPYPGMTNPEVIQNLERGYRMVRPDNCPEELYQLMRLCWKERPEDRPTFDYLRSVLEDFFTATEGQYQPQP

What does the source list for `CC1(C)C(/C=C/C2=C(Oc3ccc(CCC(=O)NCCCC[C@@H]4NC(=O)[C@@H](Cc5ccc(O)cc5)NC(=O)[C@H](CC(=O)O)NC(=O)CNC(=O)[C@H](CCCNC(=N)N)NC4=O)cc3)C(=C/C=C3/N(CCC[N+](C)(C)C)c4ccc(S(=O)(=O)O)cc4C3(C)C)/CCC2)=[N+](CCC[N+](C)(C)C)c2ccc(S(=O)(=O)O)cc21` [cRGD-ZW800-1]?
inhibition at 10 µM [1, 6]: -11%; remaining activity at 10 µM [1, 7]: 111%; inhibition at 10 µM ([2]; 10 μM cRGD-ZW800-1, format H, performed twice, read-out: % Inhibition of Control Specific Binding): 28%; remaining activity at 10 µM [2, 7]: 72.3%; reduction of fluorescence signal by unlabeled cRGD (HT-29 cells): 32%; inhibition at 10 µM (Serotonin 5-HT1B; 10 μM cRGD-ZW800-1, format An, performed twice, read-out: % Inhibition of Control Specific Binding): 1%; remaining activity at 10 µM (Serotonin 5-HT1B; [7]): 99.1%; reduction of fluorescence signal by unlabeled cRGD (U-87 MG cells): 36%; % Inhibition of Control Specific Binding (Potassium Channel hERG [3]): -6%; % of Control Specific Binding 1st (Potassium Channel hERG [3]; 10 µM): 106.4%; % of Control Specific Binding 2nd (Potassium Channel hERG [3]; 10 µM): 104.8%; activity at 10 µM (Potassium Channel hERG [4]): 106%; inhibition at 10 µM (Opioid δ (DOP); [6]): 14%; remaining activity at 10 µM (Opioid δ (DOP); [7]): 85.5%; inhibition at 10 µM (Adrenergic β2; [6]): 5%; remaining activity at 10 µM (Adrenergic β2; [7]): 95%; inhibition at 10 µM (Histamine H1; [8]): -5%; remaining activity at 10 µM (Histamine H1; [9]): 105%; inhibition at 10 µM (Opioid κ (KOP); [8]): 19%; remaining activity at 10 µM (Opioid κ (KOP); [9]): 81.2%; inhibition at 10 µM (PDE4D2; [8]): 10%; remaining activity at 10 µM (PDE4D2; [9]): 90.3%; Clearance ([5]; mice, 10 nmol i.v., mean systemic clearance ± SD, n = 5): 0.25 ± 0.06 mL/min; Distribution (α) half-life [5, 10]: 0.243 ± 0.0283 h; Terminal (β) half-life [5, 10]: 1.18 ± 0.157 h; maximal concentration in serum ([5]; mice, 10 nmol i.v., measured at 1 minute post injection, n = 5, fluorescence (FLARE) with calibration curve): 1.17 µM; AUC ([5]; mice, 10 nmol i.v., trapezoid rule, mean ± SD, n = 5): 38.9 ± 8.9; Half-life ([5]; mice, blood, 10 nmol i.v., calculated via ln(2)/k10, mean ± SD, n = 5): 0.422 ± 0.107 h; Elimination (β) half-life ([5]; mouse no. 1): 1.08 h; Elimination (β) half-life ([5]; mouse no. 2): 1.42 h; Elimination (β) half-life ([5]; mouse no. 3): 1.14 h; Elimination (β) half-life ([5]; mouse no. 4): 1.25 h; Elimination (β) half-life ([5]; mouse no. 5): 1.03 h; inhibition at 10 µM (Adrenergic β1; [8]): 18%; remaining activity at 10 µM (Adrenergic β1; [9]): 82.3%

From PMC5400565, “Real-time near-infrared fluorescence imaging using cRGD-ZW800-1 for intraoperative visualization of multiple cancer types” (Oncotarget, 2017)
